Holding throughout (type): functional
In assay [1] the test system is Rattus norvegicus. Description: Antihyperglycemic activity in streptozotocin-induced nonfasted diabetic rat assessed as decrease in blood glucose level at 20 mg/kg, po administered for 3 days measured 1 hr after last dose. On the set-up: scale not given: the % may be the effect or the level left.
For assay [2], the species on record is Rattus norvegicus. Nature of the assay: Decrease in body weight in nondiabetic rat. On the set-up: scale not given: the % may be the effect or the level left.
Assay [3] concerns Rattus norvegicus. Nature of the assay: Effect on nondiabetic rat assessed as blood glucose level per 100 mL at 20 mg/kg, po.
Assay [4] deals with Rattus norvegicus. Nature of the assay: Antihyperglycemic activity in streptozotocin-induced nonfasted diabetic rat assessed as decrease in blood glucose level at 30 mg/kg, po administered for 3 days measured 1 hr after last dose. On the set-up: scale not given: the % may be the effect or the level left.

SMILES strings stand for the structures.

Turning to `COc1cc(O)cc2c1C(=O)C(O)(Cc1ccc(O)cc1)O2` (configuration not stated) [CARPUSIN], the Activity with Rattus norvegicus [1] worked out at 33%; in the assay filed under Rattus norvegicus [2] it was 20%; with Rattus norvegicus [3] it was 64%.
`CN(C)C(=N)NC(=N)N` [METFORMIN]: in the assay with Rattus norvegicus [4], the Activity was 48%.
Turning to `COc1cc(/C=C/c2ccc(O)cc2)cc(OC)c1` [PTEROSTILBENE], the Activity was 11% with Rattus norvegicus [1], 20% in the assay filed under Rattus norvegicus [2] and 65% in the assay with Rattus norvegicus [3].

The values above are taken from ChEMBL document CHEMBL1146404, “Antihyperglycemic activity of phenolics from Pterocarpus marsupium” (1997).
